Tests used:
AKR1C3 [1] = molecular target: T1, AKR1C3 (Homo sapiens, UniProt P42330); assay: Activation by the aldoketo reductase AKR1C3, LC/MS/MS of % remaining; type: biochemical; conditions: 5 μM, 25 μg/mL AKR1C3, 2 mM NADPH, 37° C., up to 120 min, FIG. 2
T1 sequence (P42330 1-323): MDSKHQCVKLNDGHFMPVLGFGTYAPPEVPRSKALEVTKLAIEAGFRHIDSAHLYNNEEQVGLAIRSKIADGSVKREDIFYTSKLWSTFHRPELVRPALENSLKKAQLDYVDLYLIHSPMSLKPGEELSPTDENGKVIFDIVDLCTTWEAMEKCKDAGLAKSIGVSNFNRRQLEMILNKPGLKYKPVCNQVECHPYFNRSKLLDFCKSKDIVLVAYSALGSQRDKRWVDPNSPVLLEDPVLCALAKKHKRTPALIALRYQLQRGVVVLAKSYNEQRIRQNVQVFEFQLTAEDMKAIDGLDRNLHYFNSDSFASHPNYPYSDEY
Experimental: Recombinant human AKR1C3 was diluted to 25 μg/mL in phosphate buffered saline (PBS), pH 7.4 (37° C.), containing 2 mM NADPH. TH2870 or progesterone (positive control) in 30% methanol/70% water was added to the reaction mixture at a final concentration of 5 μM and incubated at 37° C. for 120 minutes. At various times up to 120 min, 50 μL of the reaction mixture was taken and 200 μL acetonitrile containing propranolol as internal standard was added, vortex-mixed and centrifuged for 10 min. The resulting supernatant (5 μL) was injected into a LC/MS/MS for quantitation of % remaining TH 2870 and progesterone. The compounds were tested in duplicates.

[2] = system: HepG2-GFP human hepatocellular carcinoma; assay: Orthotopic HepG2-GFP human hepatocellular carcinoma mouse model, tumor burden; type: in vivo, nude mice
Experimental: Female athymic nude mice (6 weeks of age) were used in this study. The animals were purchased from Beijing HFK Bioscience, Co., Ltd and maintained in a High Efficiency Particulate Air Filter (HEPA) filtered environment with cages, food, and bedding sterilized by irradiation or autoclaving. A total of 32 nude mice were used for the study. HepG2-GFP human hepatocellular carcinoma cells (AntiCancer, Inc., San Diego, Calif.) were incubated with RPMI-1640 (Gibco-BRL, Life Technologies, Inc.), which contained 10% FBS. Cells were grown in a CO2 Water Jacketed Incubator (Forma Scientific) maintaining 37° C. and a 5% CO2/95% air atmosphere. Cell viability was determined by trypan blue exclusion analysis. Five female athymic nude mice were injected subcutaneously with a single dose of 5×10^6 HepG2-GFP cells. Tumors were harvested when their size reached 1 cm^3 and the tumor tissues were then cut into small fragments of 1 mm^3. Forty female nude mice were implanted orthotopically with a single piece of tumor fragment, which was derived from a subcutaneous tumor model of HepG2-GFP human hepatocellular carcinoma. The tumor tissue was orthotopically implanted in the right lobe of the liver in each mouse by SOI (Surgical Orthotopic Implantation). […]
During the period of the study, all of the experimental mice were checked daily for mortality or signs of morbidity. […] The body weights of the mice were measured twice weekly during the study period. […] Comparisons of body weights and tumor burdens in different groups were analyzed using the Student's t-test with an α=0.05 (two-sided). […]
The progressions of orthotopic HepG2-GFP hepatocellular carcinoma in different groups were monitored by real time imaging. […] Typical tumor images at the end of the study in each group and tumor growth curves derived from the signals of tumor fluorescence, which were analyzed using the Power Station software (INDEC Biosystems, CA, USA), are shown in FIG. 6 and FIG. 7, respectively
Tumor IR was calculated based on the final average tumor weights according to the formula: IR (%)=(1−treatment(t)/control(c))×100

[3] = Body weight and toxicity in the orthotopic HepG2-GFP mouse model; type: in vivo, nude mice; conditions: 30 mg/kg, Qdx35, gavage
AKR1C3 [4] = molecular target: T1, AKR1C3; conditions: cited from earlier work
[5] = human, in vivo; cited from earlier work

SMILES: CC(OP(=O)(N1CC1)N1CC1)c1ccc([N+](=O)[O-])c(Oc2cccc(C(=O)N(C)C)c2)c1 (racemic) [TH 2870, (R,S)-1-(3-(3-N,N-dimethylaminocarbonyl)phenoxyl-4-nitrophenyl)-1-ethyl-N,N′-bis(ethylene)phosphoramidate]
- disappearance (% remaining) in the presence of AKR1C3 (AKR1C3 [1]): rapid disappearance

SMILES: CNC(=O)c1cc(Oc2ccc(NC(=O)Nc3ccc(Cl)c(C(F)(F)F)c3)cc2)ccn1 [Sorafenib, sorafenib]
- average tumor size, % less than in the negative control group ([2]; 30 mg/kg, Qdx35, gavage, P=0.0577): about 39%
- inhibitory effect on orthotopic HepG2-GFP model ([2]; at tested dosages): had inhibitory effect
- Body Weight Growth Rate [3]: 21%
- Day 0, Body Weight (mean ± sd) [3]: 15.1 ± 1.1 g
- Day 35, Body Weight (mean ± sd) [3]: 18.2 ± 0.8 g
- toxicity to the experimental mice ([3]; body weight lower than negative control): a certain degree of toxicity

SMILES: CS(=O)(=O)OCCN(CCBr)c1c(C(=O)NCCOP(=O)(O)O)cc([N+](=O)[O-])cc1[N+](=O)[O-] [PR 104]
- substrate for AKR1C3 (AKR1C3 [4]): weak substrate
- efficacy in clinical trials [5]: ineffective

SMILES: CC(=O)[C@H]1CC[C@H]2[C@@H]3CCC4=CC(=O)CC[C@]4(C)[C@H]3CC[C@]12C [Progesterone, reference compound]
- disappearance (% remaining) in the presence of AKR1C3 (AKR1C3 [1]): reduced slowly
